These results are taken from patent US10561739B2, “Targeted pyrrolobenzodiazapine conjugates” (priority 2010, dated 2020).

What all share (type): cell-based
Data set [1] deals with K562 human chronic myeloid leukaemia cells. The data set is described as follows: K562 assay (MTT cytotoxicity). To be noted: drug incubation 1 hour or 96 hours. As for the experimental part:
K562 human chronic myeloid leukaemia cells were maintained in RPM1 1640 medium supplemented with 10% fetal calf serum and 2 mM glutamine at 37° C. in a humidified atmosphere containing 5% CO2 and were incubated with a specified dose of drug for 1 hour or 96 hours at 37° C. in the dark. The incubation was terminated by centrifugation (5 min, 300 g) and the cells were washed once with drug-free medium. Following the appropriate drug treatment, the cells were transferred to 96-well microtiter plates (10^4 cells per well, 8 wells per sample). Plates were then kept in the dark at 37° C. in a humidified atmosphere containing 5% CO2. The assay is based on the ability of viable cells to reduce a yellow soluble tetrazolium salt, 3-(4,5-dimethylthiazol-2-yl)-2,5-diphenyl-2H-tetrazolium bromide (MTT, Aldrich-Sigma), to an insoluble purple formazan precipitate. Following incubation of the plates for 4 days (to allow control cells to increase in number by approximately 10 fold), 20 μL of MTT solution (5 mg/mL in phosphate-buffered saline) was added to each well and the plates further incubated for 5 h. The plates were then centrifuged for 5 min at 300 g and the bulk of the medium pipetted from the cell pellet leaving 10-20 μL per well. […] The optical density was then read at a wavelength of 550 nm on a Titertek Multiscan ELISA plate reader, and a dose-response curve was constructed. […]

The next data set deals with Caki-1 cells. As to the kind of experiment: Free drug 48 hour Cell Titer Glo cytotoxicity, Caki-1. To be noted: Homo sapiens, Table 3, 48 hours, read-out: IC50 Summary for Free Drugs, Caki-1. As for the experimental part: (§1) Referring to the following Table 3, the activities of compounds 23, 25, are compared to that of compound 11 on 786-O, Caki-1, MCF-7, HL-60, THP-1, HEL, and TF1 cells. Cells were plated in 150 μL growth media per well into black-sided clear-bottom 96-well plates (Costar, Corning) and allowed to settle for 1 hour in the biological cabinet before placing in the incubator at 37° C., 5% CO2. The following day, 4× concentration of drug stocks were prepared, and then titrated as 10-fold serial dilutions producing 8-point dose curves and added at 50 μl per well in duplicate. Cells were then incubated for 48 hours at 37° C., 5% CO2. Cytotoxicity was measure by incubating with 100 μL Cell Titer Glo (Promega) solution for 1 hour, and then luminescence was measured on a Fusion HT plate reader (Perkin Elmer). Data was processed with Excel (Microsoft) and GraphPad (Prism) to produce dose response curves and IC50 values were generated and data collected.
On the technique in general: In ATP-based viability assays light output follows the ATP content of the culture.

The test system of another data set is HL-60 cells. As to the kind of experiment: Free drug 48 hour Cell Titer Glo cytotoxicity, HL-60. To be noted: Homo sapiens, Table 3, 48 hours, read-out: IC50 Summary for Free Drugs, HL-60. The method, then: as §1
Data set [2] relates to MCF-7 cells. As to the kind of experiment: Free drug 48 hour Cell Titer Glo cytotoxicity, MCF-7. To be noted: Homo sapiens, MCF7, Table 3, 48 hours, read-out: IC50 Summary for Free Drugs, MCF-7. The method, then:
as §1

In another data set the test system is TF1a cells. As to the kind of experiment: Free drug 48 hour Cell Titer Glo cytotoxicity, TF1a. Conditions: TF-1a, Table 3, 48 hours, read-out: IC50 Summary for Free Drugs, TF1a. The method, then:
as §1

The subject of the next data set is THP-1 cells. As to the kind of experiment: Free drug 48 hour Cell Titer Glo cytotoxicity, THP-1. To be noted: Homo sapiens, Table 3, 48 hours, read-out: IC50 Summary for Free Drugs, THP-1. The method, then:
as §1

The next data set concerns HEL cells. As to the kind of experiment: Free drug 48 hour Cell Titer Glo cytotoxicity, HEL. To be noted: Homo sapiens, Table 3, 48 hours, read-out: IC50 Summary for Free Drugs, HEL. As for the experimental part: as §1
The subject of the next data set is 786-O cells. As to the kind of experiment: Free drug 48 hour Cell Titer Glo cytotoxicity, 786-O. Conditions: Homo sapiens, 786-0, Table 3, 48 hours, read-out: IC50 Summary for Free Drugs, 786-O. The method, then:
as §1

Data set [3] concerns MCF-7 cells. The data set is described as follows: Free drug cytotoxicity assay, MCF-7 (Table 2). Conditions: Homo sapiens. As for the experimental part: (§2) For a 96-hour assay, cells cultured in log-phase growth were seeded for 24 h in 96-well plates containing 150 μL RPMI 1640 supplemented with 20% FBS. Serial dilutions of test article (i.e., free drug) in cell culture media were prepared at 4× working concentration; 50 μL of each dilution was added to the 96-well plates. Following addition of test article, the cells were incubated with test articles for 4 days at 37° C. Resazurin was then added to each well to achieve a 50 μM final concentration, and the plates were incubated for an additional 4 h at 37° C. The plates were then read for the extent of dye reduction on a Fusion HT plate reader (Packard Instruments, Meridien, Conn., USA) with excitation and emission wavelengths of 530 and 590 nm, respectively. The IC50 value, determined in triplicate, is defined here as the concentration that results in a 50% reduction in cell growth relative to untreated controls.
Referring to the following Table 2, the activity of compounds 28, 30 and 32 is shown on L428, 786-O, HEL, HL-60 and MCF-7 cells, as well as the activity for compound 19 on MCF-7 cells.

The test system of data set [4] is 786-O renal cell carcinoma cell line (CD70+). As to the kind of experiment: ADC 96-hour resazurin cytotoxicity assay, 786-O. As for the experimental part:
(§3) The in vitro cytotoxic activity of the selected antibody drug conjugates was assessed using a resazurin (Sigma, St. Louis, Mo., USA) reduction assay (reference: Doronina et al., Nature Biotechnology, 2003, 21, 778-784). The antibody drug conjugates were prepared as described above in Example 13.
as §2, with “For the” for “For a”, “of ADC” for “of test article (i.e., free drug)”, “of ADC,” for “of test article,”
(In general: Resazurin is reduced to fluorescent resorufin, in cell work by metabolically active cells.)

Data set [5] has as its system L428 Hodgkin lymphoma cell line (CD70+/30+). The data set is described as follows: ADC 96-hour resazurin cytotoxicity assay, L428. As for the experimental part:
as §3
as §2, with “For the” for “For a”, “of ADC” for “of test article (i.e., free drug)”, “of ADC,” for “of test article,”

Another data set relates to control (AML cell line). The data set is described as follows: ADC 96-hour resazurin cytotoxicity assay, control line of Table 7. As for the experimental part: as §3
as §2, with “For the” for “For a”, “of ADC” for “of test article (i.e., free drug)”, “of ADC,” for “of test article,”
Referring to Table 7, the in vitro cytotoxicity of ADCs containing PBD dimers on CD70^+ cell lines using the 96 hour assay is shown. […]

In data set [1], `COc1ccc(C2=CN3C(=O)c4cc(OC)c(OCCCCCOc5cc6c(cc5OC)C(=O)N5C=C(c7ccc(N)cc7)C[C@H]5C=N6)cc4N=C[C@@H]3C2)cc1` [Compound 13, (S)-2-(4-aminophenyl)-7-methoxy-8-(5-((S)-7-methoxy-2-(4-methoxyphenyl)-5-oxo-5,11a-dihydro-1H-pyrrolo[2,1-c][1,4]benzodiazepine-8-yloxy)pentyloxy)-H-pyrrolo[2,1-c][1,4]benzodiazepine-5(11aH)-one] showed an IC50 of 0.03 nM.

Consider `COc1ccc(C2=CN3C(=O)c4cc(OC)c(OCCCCCOc5cc6c(cc5OC)C(=O)N5C=C(c7ccc(O)cc7)C[C@H]5C=N6)cc4N=C[C@@H]3C2)cc1` [Compound 23, (S)-2-(4-hydroxyphenyl)-7-methoxy-8-(5-((S)-7-methoxy-2-(4-methoxyphenyl)-5-oxo-5,11a-dihydro-1H-pyrrolo[2,1-c][1,4]benzodiazepin-8-yloxy)pentyloxy)-1H-pyrrolo[2,1-c][1,4]benzodiazepine-5(11aH)-one], for which the IC50 in the data set with Caki-1 cells stood at 0.02 nM; with HL-60 cells, 0.005 nM; with MCF-7 cells [2] it was 0.7 nM; with TF1a cells, 0.2 nM; in the data set with THP-1 cells, 0.4 nM; with HEL cells, 0.009 nM. In the data set on 786-O cells, the IC50 turned out to be 0.06 nM.

For `COc1ccc(C2=CN3C(=O)c4cc(OC)c(OCCCCCOc5cc6c(cc5OC)C(=O)N5C=C(c7ccc(C=O)cc7)C[C@H]5C=N6)cc4N=C[C@@H]3C2)cc1` [Compound 25, 4-((S)-7-methoxy-8-(5-((S)-7-methoxy-2-(4-methoxyphenyl)-5-oxo-5,11a-dihydro-1H-pyrrolo[2,1-c][1,4]benzodiazepin-8-yloxy)pentyloxy)-5-oxo-5,11a-dihydro-1H-pyrrolo[2,1-c][1,4]benzodiazepine-2-yl)benzaldehyde], the IC50 stood at 0.06 nM in the data set with Caki-1 cells; 0.01 nM in the data set with HL-60 cells; 0.8 nM with MCF-7 cells [2]; 0.9 nM in the data set with TF1a cells; 0.9 nM in the data set on THP-1 cells; 0.02 nM with HEL cells. Besides, the IC50 in the data set with 786-O cells is 0.09 nM.

As to `COc1cc2c(cc1OCCCCCOc1cc3c(cc1OC)C(=O)N1C=C(c4cccc(N)c4)C[C@H]1C=N3)N=C[C@@H]1CC(c3ccc(N4CCN(C)CC4)cc3)=CN1C2=O` [Compound 30, (S)-2-(3-aminophenyl)-7-methoxy-8-(5-((S)-7-methoxy-2-(4-(4-methylpiperazin-1-yl)phenyl)-5-oxo-5,11a-dihydro-H-pyrrolo[2,1-c][1,4]benzodiazepin-8-yloxy)pentyloxy)-1H-pyrrolo[2,1-c][1,4]benzodiazepine-5(11aH)-one], the IC50 in the data set with MCF-7 cells [3] (MCF7, Table 2, read-out: IC50 Summary for Free Drugs, MCF-7) came to 0.01 nM.

Turning to `COc1ccc(C2=CN3C(=O)c4cc(OC)c(OCCCOc5cc6c(cc5OC)C(=O)N5C=C(c7ccc(CN)cc7)C[C@H]5C=N6)cc4N=C[C@@H]3C2)cc1` [Compound 32, (S)-2-(4-(aminomethyl)phenyl)-7-methoxy-8-(3-((S)-7-methoxy-2-(4-methoxyphenyl)-5-oxo-5,11a-dihydro-1H-pyrrolo[2,1-c][1,4]benzodiazepine-8-yloxy)propyloxy)-1H-pyrrolo[2,1-c][1,4]benzodiazepine-5(11aH)-one], in the data set on MCF-7 cells [3] (MCF7, read-out: IC50 Summary for Free Drugs, MCF-7), the IC50 was determined as 1 nM.

B1: h1F6-44 (3.5 dr/mAb) (conjugate, chains of the INN, looked up)
VH: QVQLVQSGAEVKKPGASVKVSCKASGYTFTNYGMNWVRQAPGQGLKWMGWINTYTGEPTYADAFKGRVTMTRDTSISTAYMELSRLRSDDTAVYYCARDYGDYGMDYWGQGTTVTVSS
VL: DIVMTQSPDSLAVSLGERATINCRASKSVSTSGYSFMHWYQQKPGQPPKLLIYLASNLESGVPDRFSGSGSGTDFTLTISSLQAEDVAVYYCQHSREVPWTFGQGTKVEIK
modifications: drug-linker 44 conjugate, 3.5 drugs/mAb
As to B1, in data set [4], the “In vitro cytotoxic activity (IC50), 786-O” value turned out to be 1.124 µg/mL. In addition, the “In vitro cytotoxic activity (IC50), L428” value in data set [5] was 2.142 µg/mL.

B2: h1F6 54 (4 dr/rnAb) (conjugate, chains of the INN, looked up)
VH: B1 VH
VL: B1 VL
modifications: drug-linker 54, 4 drugs/mAb
Consider B2, for which the “In vitro cytotoxic activity (IC50), 786O” value in data set [4] is “No effect”. Further, in the data set on control (AML cell line), the “In vitro cytotoxic activity (IC50), control” value is “No effect”. The “In vitro cytotoxic activity (IC50), L428” value in data set [5] is reported as “No effect”.

B3: h1F6- 43(4 dr/rnAb) (conjugate, chains of the INN, looked up)
VH: B1 VH
VL: B1 VL
modifications: drug-linker 43, 4 drugs/mAb
In the case of B3, the “In vitro cytotoxic activity (IC50), 786O” value in [4] came out at 0.011 µg/mL. Further, the “In vitro cytotoxic activity (IC50), control” value in the data set on control (AML cell line) came to 1.205 µg/mL. For the same molecule, in data set [5], the “In vitro cytotoxic activity (IC50), L428” value came out at 0.404 µg/mL.

For orientation: IC50 means the concentration at which inhibition is half-maximal.
